# Tests used:
# [1] = test system: leukotriene E4 bronchoconstriction; test: Guinea Pig Bronchoconstriction, In Vivo (Aerosol), leukotriene E4 challenge; set-up: species or system guinea pig (Hartley strain); details: five minute exposure, drug concentration of aerosol solution (w/v), leukotriene E4 i.v.
# Protocol: (b) Guinea Pig Bronchoconstriction, In Vivo (Aerosol):
# Male guinea pigs (Hartley strain) weighing 300 to 500 g are anesthetized with urethane (2 g/kg) intraperitoneally and a polyethylene cannula is inserted into the jugular vein for drug administration. Tracheal pressure is recorded from a cannula inserted in the trachea and connected to a Statham pressure transducer. After surgical preparation of the animals, a period of time is allowed for pulmonary functions to stabilize. The test compound is administered according to the following protocol. Propanolol (0.1 mg/kg) is administered intravenously while the animals breathed spontaneously. Five minutes thereater, the animals are exposed for a five minute period to a 1% (w/v) aerosol solution of test compound (adjusted to an alkaline pH where necessary for drug solubilization) or to distilled water of thhe appropriate pH (for control purposes). A Monaghan (Model 750) ultrasonic nebulizer is used to administer all test compounds by inhalation. The nebulizer ultrasonic frequency is adjusted to produce particles in the 1-8μ diameter range (average 3μ). Aqueous solutions are prepared freshly and introduced into the chamber of the nebulizer. The output of the nebulizer is made available to the animal by directing a bias flow of aerosol through a Y tube connected to the trachel cannula. At the end of the exposure period, the animals are paralyzed with succinylcholine (1.2 mg/kg, i.v.) and mechanically respirated (Harvard rodent respirator) at 40 breaths/minute and 2.5 cc tidal volume. Animals are then challenged with a maximum constrictory dose of leukotriene E4 delivered intravenously 30 seconds after administration of the succinylcholine.
# The change (cm H2 O) between pre and peak ventilatory pressure readings averaged for three control animals and five drug treated animals. The percent inhibition is calculated from the following formula: [formula] When various drug concentrations are tested, the percent inhibition at each concentration is plotted as log concentration (abscissa) versus percent inhibition (ordinate) and the IC50 is determined from linear regression analysis.
# [2] = test system: SRS-A-induced constriction of the guinea pig ileum; test: Guinea Pig Ileum, In Vitro (SRS-A antagonism); format: cell-based; details: Cavia porcellus; SRS-A-induced constriction, 37° C., SRS-A at its EC50; read-out: In vitro Guinea Pig ileum IC50
# Protocol: (a) Guinea Pig Ileum, In Vitro:
# The guinea pig ileum bioassay system has been described by Orange Austen, Adv. Immunol. […] A 1.5 cm segment is removed from animals weighing 300-400 g and suspended in an organ bath containing 10 ml of Tyrodes solution with 10^-6 M atropine sulfate and 10^-6 M pyrilamine maleate. […] The SRS-A utilized in this screen is obtained by challenging chopped lung fragments from actively sensitized guinea pigs with egg albumin, in vitro. A dose-response curve to SRS-A challenge is established for the ileum. […] The drug concentration which inhibits, by 50%, the SRS-A-induced constriction of the guinea pig ileum is determined.
# [3] = test system: leukotriene D4 induced bronchoconstriction; test: Oral Testing of Leukotriene Antagonists, leukotriene D4 challenge; format: in vivo, guinea pig (Hartley strain); details: Cavia porcellus, 2 h, p.o., two hours prior to challenge
# Protocol: (c) Oral Testing of Leukotriene Antagonists
# Male guinea pigs (Hartley strain, Charles River) weighing 400 to 600 g were anesthetized with urethane (2 g/kg) intraperitoneally and a polyethylene cannula was inserted into the jugular vein for intravenous drug administration. Tracheal pressure (cm water) was recorded from a Statham pressure transducer. After surgical preparation of the animals, a period of time was allowed for spontaneous breathing to stabilize. […] Two minutes later, spontaneous breathing was arrested with succinylcholine chloride (1.2 mg/kg, i.v.) and the animals ventilated with a Harvard (Model #680) small animal respirator set at 40 breaths per minute and 4.0 cc stroke volume. The animals were challenged with a maximum constrictory dose of either leukotriene C4 or leukotriene D4 or leukotriene E4 (25 μg/kg, i.v.) at 5 minutes. Control vehicle or test drug (adjusted to an alkaline pH where necessary for drug solubilization) was administered (10 mg/kg, p.o.) two hours prior to challenge with leukotriene. In order to determine the ID50 for a test drug, the dose is varied from 10 mg/kg, p.o. to 100, 50, 30, 20, 5, 3 and 1 mg/kg, p.o.
# In order to determine oral duration of action, the time between exposure to test drug and challenge with leukotriene is varied.
SMILES,Guinea Pig Bronchoconstriction In vivo aerosol - IC50 [1] [%],IC50 [2] [nM],inhibition at 10 mg/kg [3] [%]
"CCCc1c(OCCCOc2ccc3c(c2)OC(C)(CCC(=O)O)CC3)ccc(C(C)=O)c1O (racemic) [racemic-7-[3-(4-acetyl-3-hydroxy-2-propylphenoxy)propoxy]-3,4-dihydro-2-methyl-2H-1-benzopyran-2-propanoic acid]",> 1.0,100,–
"CCCc1c(OCCCOc2cc3c(cc2C(C)=O)CCC(C(=O)O)O3)ccc(C(C)=O)c1O (racemic) [racemic-6-acetyl-7-[3-(4-acetyl-3-hydroxy-2-propylphenoxy)propoxy]-3,4-dihydro-2H-1-benzopyran-2-carboxylic acid]",0.20,100,–
"CCCc1c(OCCCOc2ccc3c(c2CCC)OC(C(=O)O)CC3)ccc(C(C)=O)c1O (racemic) [racemic-7-[3-(4-acetyl-3-hydroxy-2-propyl)phenoxy)propoxy]-3,4-dihydro-8-propyl-2H-1-benzopyran-2-carboxylic acid]",0.20,100,–
"CCCc1c(OCCCOc2ccc3c(c2)CCC(C(=O)O)O3)ccc(C(C)=O)c1O (racemic) [racemic-6-[3-(4-acetyl-3-hydroxy-2-propylphenoxy)propoxyl]3,4-dihydro-2H-1-benzopyran-2-carboxylic acid]",0.50,500,–
"CCCc1c(OCCCOc2ccc3c(c2)OC(C(=O)O)CC3)ccc(C(C)=O)c1O (racemic) [racemic-7-[3-(4-acetyl-3-hydroxy-2-propylphenoxy)propoxy]-3,4-dihydro-2H-1-benzopyran-2-carboxylic acid]",0.14,60,–
"CCCc1c(OCCCCCOc2cc3c(cc2C(C)=O)CCC(CCCCC(=O)O)O3)ccc(C(C)=O)c1O (racemic) [racemic-6-acetyl-7-[5-(4-acetyl-3-hydroxy-2-propylphenoxy)pentyloxy]-3,4-dihydro-2H-1-benzopyran-2-pentanoic acid]",–,–,46 ± 14
"CCCc1c(OCCCOc2ccc3c(c2)OCC(C(=O)O)C3)ccc(C(C)=O)c1O (racemic) [racemic 7-[3-(4-acetyl-3-hydroxy-2-propylphenoxy)propoxy]-3,4-dihydro-2H-1-benzopyran-3-carboxylic acid]",> 1.0,100,–

# Second part, led by results:
Guinea Pig Bronchoconstriction In vivo aerosol - IC50 [1] [%],IC50 [2] [nM],SMILES,inhibition at 10 mg/kg [3] [%]
0.71,500,"CCCc1c(OCCCOc2ccc3c(c2CCC)OC(C)(CCC(=O)O)CC3)ccc(C(C)=O)c1O (racemic) [racemic-7-[3-(4-acetyl-3-hydroxy-2-n-propylphenoxy)propoxy]-3,4-dihydro-2-methyl-8-n-propyl-2H-1-benzopyran-2-propanoic acid]",–
1.0,100,"CCCc1c(OCCCOc2c(C)c(C)c3c(c2C)CCC(C(=O)O)O3)ccc(C(C)=O)c1O (racemic) [racemic-6-[3-(4-acetyl-3-hydroxy-2-propylphenoxy)propoxy]-3,4-dihydro-5,7,8-trimethyl-2H-1-benzopyran-2-carboxylic acid]",–
1.0,200,"CCCc1c(OCCCOc2c(C)c(C)c3c(c2C)CCC(C)(CC(=O)O)O3)ccc(C(C)=O)c1O (racemic) [racemic-6-[3-(4-acetyl-3-hydroxy-2-propylphenoxy)propoxy]-3,4-dihydro-2,5,7,8-tetramethyl-2H-1-benzopyran-2-acetic acid]",–
1.0,100,"CCCc1c(OCCCOc2c(C)c(C)c3c(c2C)CCC(C)(C(=O)O)O3)ccc(C(C)=O)c1O (racemic) [racemic-6-[3-(4-acetyl-3-hydroxy-2-propylphenoxy)propoxy]-3,4-dihydro-2,5,7,8-tetramethyl-2H-1-benzopyran-2-carboxylic acid]",–
